Among the data in publication PMC12073635, “Synthesis of Tricyclic and Tetracyclic Lactone Derivatives of Thieno[2,3-b]pyrazine or Thieno[2,3-b]quinoline: Preliminary Antitumor and Antiparasitic Activity Evaluation” (Molecules, 2025) are GI50, CC50 and IC50 values, retold here.

Series [1] in a line: SRB assay, toxicity in non-tumor PLP2 cells. Type of series: cell-based, pig. The following applies: PLP2 primary pig liver cells (non-tumor); non-tumor primary pig liver cells, SRB assay, 72 h, mean ± standard deviation. The procedure: (§1) The antitumor potential of the Sonogashira coupling products 2, tricyclic lactones 3 and 5, and tetracyclic lactones 7 was evaluated using the sulforhodamine B (SRB) assay against five human tumor cell lines: colorectal adenocarcinoma (CaCo-2), breast adenocarcinoma (MCF-7), gastric adenocarcinoma (AGS), cervical carcinoma (HeLa), and non-small cell lung cancer (NCI-H460). A primary pig liver cell culture (PLP2) was used to assess the toxicity of compounds.
(§2) The human tumor cell lines used were CaCo-2 (colorectal adenocarcinoma), MCF-7 (breast adenocarcinoma), AGS (gastric adenocarcinoma), HeLa (cervical carcinoma), NCI-H460 (lung carcinoma). Non-tumor cell lines were also tested: PLP2 (primary pig liver culture). All the cell lines were maintained in RPMI-1640 medium supplemented with 10% fetal bovine serum, glutamine (2 mM), penicillin (100 U/mL), and streptomycin ([…]), with the exception of PLP2, which was maintained in DMEM medium supplemented with fetal bovine serum (10%), glutamine and antibiotics. The culture flasks were incubated at 37 °C and with 5% CO2, under a humid atmosphere. The cells were used only when they had 70 to 80% confluence. A known mass of each compound was dissolved in DMSO/H2O (1:1, 1 mL), in order to obtain the stock solutions with a concentration of 1 mM. […] Each compound concentration (10 μL) was incubated with the cell suspension (190 μL) of the cell lines tested in 96-well microplates for 72 h. The microplates were incubated at 37 °C and with 5% CO2 in a humid atmosphere after checking the adherence of the cells. All cell lines were tested at a concentration of 10,000 cells/well. After the incubation period, the cells were treated: TCA (10% w/v; 100 μL) was previously cooled, and plates were incubated for 1 h at 4 °C, washed with water, and, after drying, a SRB solution (0.057%, m/v; 100 μL) was added and left to stand at room temperature for 30 min. To remove non-adhered SRB, plates were washed three times with a solution of acetic acid (1% v/v) and placed to dry. Finally, an adhered SRB was solubilized with Tris (10 mM, 200 μL) and the absorbance at a wavelength of 540 nm was read in the Biotek ELX800 microplate reader. The results obtained by the SRB assay were expressed regarding the concentration compounds that can inhibit cell growth by 50%—GI50. Doxorubicin was used as a positive control.

In series [2] the test system is MCF-7 (breast adenocarcinoma) cells. Nature of the series: SRB cell growth inhibition assay, MCF-7. It is filed as cell-based, human. The following applies: Homo sapiens, MCF7, 72 h, mean ± standard deviation. The method, then: as §1, §2
In series [3] the test system is AGS (gastric adenocarcinoma) cells. Nature of the series: SRB cell growth inhibition assay, AGS. Type of series: cell-based. The following applies: Homo sapiens, 72 h, mean ± standard deviation. The procedure:
as §1, §2

Series [4] has as its system CaCo-2 (colorectal adenocarcinoma) cells. Nature of the series: SRB cell growth inhibition assay, CaCo-2. It is filed as cell-based, human. The conditions noted are these: Homo sapiens, Caco-2, 72 h, mean ± standard deviation. The method, then:
as §1, §2

Series [5] has as its system NCI-H460 (non-small cell lung cancer) cells. Nature of the series: SRB cell growth inhibition assay, NCI-H460. Type of series: cell-based. The following applies: Homo sapiens, 72 h, mean ± standard deviation. The method, then: as §1, §2
The subject of series [6] is HeLa (cervical carcinoma) cells. Nature of the series: SRB cell growth inhibition assay, HeLa. Type of series: cell-based. The conditions noted are these: Homo sapiens, 72 h, mean ± standard deviation. The procedure: as §1, §2
A short description of series [7]: MTT cytotoxicity in THP-1-derived macrophages. It is filed as cell-based, human. The following applies: human, THP-1-derived macrophages (PMA-differentiated); MTT, 72 h, tested 100 to 12.5 μM; read-out: CC50 Interval in THP-1-Derived Macrophages. The method, then: Human leukemia cell line, THP-1 (ATCC® TIB-202™, Manassas, VA, USA) was cultured in RPMI-1640 medium supplemented with 10% heat-inactivated Fetal Bovine Serum (FBS), 2 mM L-glutamine, 100 UI/mL penicillin/streptomycin, 20 mM HEPES. The cell line was maintained in a humidified incubator at 37 °C and 5% CO2 by subculture every three days in 20 mL of media at a concentration of 1 × 10^5/mL in a T75 flask. All cell culture reagents were purchased from Lonza-Bioscience (Morrisville, NC, USA).
The cytotoxicity effect of compounds on THP-1-derived macrophages was assessed by the colorimetric MTT assay (3-(4,5-dimethylthiazol-2-yl)-2,5-diphenyl tetrazolium bromide). Briefly, THP-1 cells were suspended in RPMI complete medium at a density of 1 × 10^6 cells/mL and 100 μL/well were seeded in a 96-well plate and were differentiated into macrophages by addition of 40 ng/mL of phorbol-myristate 13-acetate (PMA, Sigma, Saint Louis, MI, USA) for 24 h followed by replacement with fresh medium for more 24 h. Subsequently, cells were incubated with 100 μL of compounds ranging from 100 to 12.5 μM after dilution in the RPMI complete medium. Each condition was carried out in quadruplicate. After 72 h of incubation at 37 °C 5% CO2, the medium was removed and 200 μL of 0.5 mg/mL MTT solution diluted in RPMI was added. Plates were incubated for an additional 4 h. Then 160 μL of media was removed and the same volume of 2-propanol was added. Absorbance was read at 570 nm using a Synergy 2 Multi-Mode Reader (Biotek, Winooski, VT, USA). Cytotoxicity was evaluated by the determination of the CC50 value (drug concentration that reduced the percentage of viable cells in 50%) and calculated by non-linear regression analysis using GraphPad Prism version 8.1.1 for Windows (GraphPad Software, San Diego, CA, USA). The results represent the average of at least three independent experiments. For each compound, the Selectivity Index (SI) was calculated as the ratio between cytotoxicity in THP-1 (CC50, 72 h) and activity against parasites (IC50, 72 h).

Series [8] relates to T. brucei Lister 427 bloodstream forms. Nature of the series: Resazurin-based anti-T. brucei assay. Type of series: cell-based, Trypanosoma brucei. The conditions noted are these: Trypanosoma brucei, 72 h, dose-response. The procedure: The antiparasitic activity of compounds 2c–g, 3a, 5a and 7 was evaluated at a single concentration of 20 μM, against Trypanosoma brucei (T. brucei) and Leishmania infantum (L. infantum) promastigotes. The results are shown in Table 9 together with the cytotoxicity data (CC50) in THP-1–derived macrophages cells.
T. brucei Lister 427 bloodstream forms were grown in a humidified incubator at 37 °C, 5% CO2 in complete HMI-9 medium 1 supplemented with 10% heat-inactivated Fetal Bovine Serum (FBS) and 100 UI/mL penicillin/streptomycin. Parasites maintenance was performed in T25 ventilated flasks by subpassage at a concentration of 1 × 10^4/mL every 2 days on T25 ventilated flasks.
The efficacy of compounds against T. brucei bloodstream forms was evaluated using a modified resazurin-based assay previously described in the literature. Parasites were added to 100 µL of serial dilutions of compounds in supplemented complete medium at a cell density of 5 × 10^3/mL for. As a quality control, a dose–response curve for the antitrypanosomal pentamidine was included in all the assays. The final volume of the assay is 200 µL/well. Each condition was carried out in duplicate. Following 72 h incubation at the specific conditions for T. brucei, 20 µL of a 0.5 mM resazurin solution was added and plates were incubated for a further 4 h under the same conditions. Fluorescence was measured at 544 nm and 590 nm excitation and emission wavelength, respectively, using a Synergy 2 Multi-Mode Reader (Biotek, Winooski, VT, USA). Results were shown as % of parasite growth inhibition compared to control (untreated parasites) and represent the average of at least three independent experiments. The effect was evaluated by the determination of the IC50 value (concentration required to inhibit growth in 50%) and calculated by non-linear regression curves using GraphPad Prism version 8.1.1 for Windows (GraphPad Software, San Diego CA, USA).

`COC(=O)c1sc2nccnc2c1C#Cc1ccccc1` [Compound 2a, Methyl 7-(phenylethynyl)thieno[2,3-b]pyrazine-6-carboxylate] registered a concentration for 50% growth inhibition (GI50) at 72 h in series [1] of more than 125 µM. Moreover, the GI50 in series [2] was 94.8 ± 6.43 µM; in series [3], 86.8 ± 4.99 µM; in series [4], 70 ± 3.78 µM; in series [5] it was 91.5 ± 9.12 µM; in series [6], 68.7 ± 3.05 µM.
In series [1], `Nc1ccc(-c2cc3c(sc4nccnc43)c(=O)o2)cc1` [Compound 3b, 8-(4-aminophenyl)-6H-pyrano[4′,3′:4,5]thieno[2,3-b]pyrazin-6-one] showed a GI50 at 72 h of more than 125 µM. Moreover, the GI50 turned out to be 75.7 ± 6.48 µM in series [2]; 74.3 ± 5.96 µM in series [3]; 67.5 ± 4.19 µM in series [4]; 82.7 ± 7.41 µM in series [5]; 58.1 ± 4.29 µM in series [6].
Take `Cc1c(-c2ccccc2)oc(=O)c2sc3nc4ccccc4cc3c12` [Compound 7f, 4-Methyl-3-phenyl-1H-pyrano[4’,3’:4,5]thieno[2,3-b]quinolin-1-one]: the GI50 at 72 h in series [1] was more than 125 µM. Besides, the GI50 in series [2] stood at 76.4 ± 2.58 µM; in series [3], 83.4 ± 6.27 µM; in series [4] it was 87 ± 3.51 µM; in series [5], 92.1 ± 3.89 µM; in series [6] it was 71.5 ± 2.36 µM. For the same compound, the CC50 at 72 h in series [7] is 12.5 to 50 µM.
For `O=c1oc(-c2ccsc2)cc2c1sc1nccnc12` [Compound 3g, 8-(thiophen-3-yl)-6H-pyrano[4′,3′:4,5]thieno[2,3-b]pyrazin-6-one], the GI50 at 72 h in series [1] is more than 125 µM. Also, the GI50 is 48.6 ± 2.15 µM in series [2]; 45.3 ± 0.89 µM in series [3]; 52.5 ± 1.31 µM in series [4]; 44 ± 3.28 µM in series [5]; 39 ± 1.78 µM in series [6].
`CCCCCCCCCCCCCCCCOP(=O)([O-])OCC[N+](C)(C)C` [Milefosine, miltefosine, reference compound]: in series [8], the IC50 was determined as 2.9 µM.
`O=c1oc(-c2ccccc2)c(Br)c2c1sc1nccnc12` [Compound 5b, 9-Bromo-8-phenyl-6H-pyrano[4′,3′:4,5]thieno[2,3-b]pyrazin-6-one] yielded a GI50 at 72 h in series [1] of 89.8 ± 1.79 µM. Further, the GI50 came out at 45.1 ± 1.74 µM in series [2]; 32.8 ± 1.56 µM in series [3]; 18.3 ± 0.92 µM in series [4]; 48.3 ± 1.08 µM in series [5]; 29.1 ± 2.81 µM in series [6].
`Cc1ccc(-c2cc3c(sc4nccnc43)c(=O)o2)cc1` [Compound 3e, 8-(p-Tolyl)-6H-pyrano[4′,3′:4,5]thieno[2,3-b]pyrazin-6-one]: the GI50 at 72 h in series [1] came out at 90.5 ± 6.47 µM. The GI50 in series [2] is 47.6 ± 4.5 µM; in series [3] it was 43.8 ± 1.76 µM; in series [4] it was 28.8 ± 1.85 µM; in series [5] it was 29.3 ± 1.47 µM; in series [6] it was 38.2 ± 3.29 µM.
Regarding `COC(=O)c1sc2nccnc2c1C#Cc1ccc(N)cc1` [Compound 2b, Methyl 7-[(4-aminophenyl)ethynyl]thieno[2,3-b]pyrazine-6-carboxylate], the GI50 at 72 h in series [1] is more than 125 µM. For the same compound, the GI50 in series [2] was determined as 49.7 ± 2.41 µM; in series [3], 51.4 ± 2.87 µM; in series [4] it was 59.2 ± 1.76 µM; in series [5], 48.6 ± 4.31 µM; in series [6] it was 47.9 ± 3.58 µM.
`O=c1oc(-c2ccc(F)cc2)cc2c1sc1nccnc12` [Compound 3c, 8-(4-fluorophenyl)-6H-pyrano[4′,3′:4,5]thieno[2,3-b]pyrazin-6-one]: in series [1], the GI50 at 72 h was more than 125 µM. The GI50 in series [2] came to 56.1 ± 3.56 µM; in series [3] it was 51.5 ± 3.29 µM; in series [4] it was 44.1 ± 0.93 µM; in series [5] it was 72.4 ± 6.24 µM; in series [6], 48.4 ± 3.19 µM.
`O=c1oc(-c2ccc(Br)cc2)c(-c2ccc(Br)cc2)c2c1sc1nc3ccccc3cc12` [Compound 7c, 3,4-Bis(4-bromophenyl)-1H-pyrano[4′,3′:4,5]thieno[2,3-b]quinolin-1-one] yielded a concentration for 50% growth inhibition (GI50) at 72 h in series [1] of more than 125 µM. Further, the GI50 is 90.3 ± 4.16 µM in series [2]; 104 ± 9.12 µM in series [3]; 87.8 ± 8.01 µM in series [4]; 108 ± 5.44 µM in series [5]; 77.1 ± 1.12 µM in series [6]. Further, in series [7], the CC50 at 72 h is less than 12.5 µM.
In turn, `COc1cccc2c1C(=O)c1c(O)c3c(c(O)c1C2=O)C[C@@](O)(C(=O)CO)C[C@@H]3O[C@H]1C[C@H](N)[C@H](O)[C@H](C)O1` [doxorubicin, Doxorubicin, reference compound] had a GI50 at 72 h in series [1] of 0.1 µM. Further, the GI50 in series [2] amounted to 0.05 µM; in series [3] it was 0.03 µM; in series [4], 0.04 µM; in series [5] it was 0.07 µM; in series [6], 0.05 µM.
As for `COc1ccc(-c2cc3c(sc4nccnc43)c(=O)o2)cc1` [Compound 3d, 8-(4-Methoxyphenyl)-6H-pyrano[4′,3′:4,5]thieno[2,3-b]pyrazin-6-one], the GI50 at 72 h in series [1] was more than 125 µM. In addition, the GI50 in series [2] is 58.6 ± 1.86 µM; in series [3], 56.2 ± 3.02 µM; in series [4], 90.5 ± 6.47 µM; in series [5], 45.3 ± 3.27 µM; in series [6], 50.3 ± 4.79 µM.
`O=c1oc(-c2ccccc2)cc2c1sc1nccnc12` [Compound 3a, 8-phenyl-6H-pyrano[4′,3′:4,5]thieno[2,3-b]pyrazin-6-one] showed a concentration for 50% growth inhibition (GI50) at 72 h in series [1] of more than 125 µM. Also, the GI50 in series [2] came out at 77.5 ± 1.23 µM; in series [3] it was 56.4 ± 3.76 µM; in series [4], 79.9 ± 3.56 µM; in series [5], 36.5 ± 0.69 µM; in series [6] it was 49.7 ± 2.69 µM. In series [7], the CC50 at 72 h lay in the range of 50 to 100 µM.
